Measured values reported in the supplement of paper PMC8671470.
Where a name gives a salt, the structure may show the parent alone.

Tested on: HL-60
Assay: cell viability (% survival relative to DMSO control); higher = less cytotoxic
Conditions: drug1 concentration 100 nM; drug2 concentration 5000 nM; 72 h
Protocol: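 8x8 drug-combination matrices (0-5000 nM; rosiglitazone and lestaurtinib 0-1000 nM) were run in HL-60 cells for 72 h with a CellTiter-Glo read-out. Survival is normalised to DMSO and 10 µM bortezomib and clipped at 100%. Bliss synergy was analysed in SynergyFinder.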

Going from `O=C(O)CC[N+](=O)[O-]` [3-nitropropionic acid] + CCn1c(=Cc2cccc[n+]2CC)sc(=C2Sc3ccccc3N2C)c1=O [MKT 077] to `CN(CCOc1ccc(Cc2sc(O)nc2O)cc1)c1ccccn1` [Rosiglitazone] + CC(C)(Cc1ccccc1)NCC(O)c1ccc(O)c(NS(C)(=O)=O)c1 [Zinterol hydrochloride], the cell viability rises from 84.7% to over 100%.

Compared with `CCn1c(=Cc2cccc[n+]2CC)sc(=C2Sc3ccccc3N2C)c1=O` [MKT 077] + CN(C)CCNC(=O)c1cccn2c(=O)c3cc4ccccc4cc3nc12 [Bmh-21], `CN(CCOc1ccc(Cc2sc(O)nc2O)cc1)c1ccccn1` [Rosiglitazone] + c1cc(-c2cnn3cc(-c4ccc(OCCN5CCCCC5)cc4)cnc23)ccn1 [Dorsomorphin] is higher in cell viability: 43.2% for the first, 65.7% for the second.

Same assay, conditions: drug1 concentration 500 nM; drug2 concentration 5 nM; 72 h

`O=C(O)CC[N+](=O)[O-]` [3-nitropropionic acid] + CCn1c(=Cc2cccc[n+]2CC)sc(=C2Sc3ccccc3N2C)c1=O [MKT 077] and `CN(CCOc1ccc(Cc2sc(O)nc2O)cc1)c1ccccn1` [Rosiglitazone] + CC(C)(Cc1ccccc1)NCC(O)c1ccc(O)c(NS(C)(=O)=O)c1 [Zinterol hydrochloride] cannot be ordered by cell viability: over 100% for the first, over 100% for the second.

First: CCn1c(=Cc2cccc[n+]2CC)sc(=C2Sc3ccccc3N2C)c1=O [MKT 077] + CN(C)CCNC(=O)c1cccn2c(=O)c3cc4ccccc4cc3nc12 [Bmh-21]
Second: CN(CCOc1ccc(Cc2sc(O)nc2O)cc1)c1ccccn1 [Rosiglitazone] + c1cc(-c2cnn3cc(-c4ccc(OCCN5CCCCC5)cc4)cnc23)ccn1 [Dorsomorphin]
The cell viability of the first is higher: over 100% for the first, 94.8% for the second.

Same assay, conditions: drug1 concentration 500 nM; drug2 concentration 10 nM; 72 h

`O=C(O)CC[N+](=O)[O-]` [3-nitropropionic acid] + CCn1c(=Cc2cccc[n+]2CC)sc(=C2Sc3ccccc3N2C)c1=O [MKT 077] and `CN(CCOc1ccc(Cc2sc(O)nc2O)cc1)c1ccccn1` [Rosiglitazone] + CC(C)(Cc1ccccc1)NCC(O)c1ccc(O)c(NS(C)(=O)=O)c1 [Zinterol hydrochloride] cannot be ordered by cell viability: over 100% for the first, over 100% for the second.

Compared with `CCn1c(=Cc2cccc[n+]2CC)sc(=C2Sc3ccccc3N2C)c1=O` [MKT 077] + CN(C)CCNC(=O)c1cccn2c(=O)c3cc4ccccc4cc3nc12 [Bmh-21], `CN(CCOc1ccc(Cc2sc(O)nc2O)cc1)c1ccccn1` [Rosiglitazone] + c1cc(-c2cnn3cc(-c4ccc(OCCN5CCCCC5)cc4)cnc23)ccn1 [Dorsomorphin] is higher in cell viability: 62.4% for the first, over 100% for the second.

Same assay, conditions: drug1 concentration 500 nM; drug2 concentration 50 nM; 72 h

First: O=C(O)CC[N+](=O)[O-] [3-nitropropionic acid] + CCn1c(=Cc2cccc[n+]2CC)sc(=C2Sc3ccccc3N2C)c1=O [MKT 077]
Second: CN(CCOc1ccc(Cc2sc(O)nc2O)cc1)c1ccccn1 [Rosiglitazone] + CC(C)(Cc1ccccc1)NCC(O)c1ccc(O)c(NS(C)(=O)=O)c1 [Zinterol hydrochloride]
The cell viability of the first is lower: 97.7% for the first, over 100% for the second.

Compared with `CCn1c(=Cc2cccc[n+]2CC)sc(=C2Sc3ccccc3N2C)c1=O` [MKT 077] + CN(C)CCNC(=O)c1cccn2c(=O)c3cc4ccccc4cc3nc12 [Bmh-21], `CN(CCOc1ccc(Cc2sc(O)nc2O)cc1)c1ccccn1` [Rosiglitazone] + c1cc(-c2cnn3cc(-c4ccc(OCCN5CCCCC5)cc4)cnc23)ccn1 [Dorsomorphin] is higher in cell viability: 87.1% for the first, over 100% for the second.

Same assay, conditions: drug1 concentration 500 nM; drug2 concentration 100 nM; 72 h

First: O=C(O)CC[N+](=O)[O-] [3-nitropropionic acid] + CCn1c(=Cc2cccc[n+]2CC)sc(=C2Sc3ccccc3N2C)c1=O [MKT 077]
Second: CN(CCOc1ccc(Cc2sc(O)nc2O)cc1)c1ccccn1 [Rosiglitazone] + CC(C)(Cc1ccccc1)NCC(O)c1ccc(O)c(NS(C)(=O)=O)c1 [Zinterol hydrochloride]
The cell viability of the first is higher: 99.2% for the first, 78.9% for the second.

Compared with `CCn1c(=Cc2cccc[n+]2CC)sc(=C2Sc3ccccc3N2C)c1=O` [MKT 077] + CN(C)CCNC(=O)c1cccn2c(=O)c3cc4ccccc4cc3nc12 [Bmh-21], `CN(CCOc1ccc(Cc2sc(O)nc2O)cc1)c1ccccn1` [Rosiglitazone] + c1cc(-c2cnn3cc(-c4ccc(OCCN5CCCCC5)cc4)cnc23)ccn1 [Dorsomorphin] is higher in cell viability: 85.5% for the first, over 100% for the second.

Same assay, conditions: drug1 concentration 500 nM; drug2 concentration 500 nM; 72 h

Compared with `O=C(O)CC[N+](=O)[O-]` [3-nitropropionic acid] + CCn1c(=Cc2cccc[n+]2CC)sc(=C2Sc3ccccc3N2C)c1=O [MKT 077], `CN(CCOc1ccc(Cc2sc(O)nc2O)cc1)c1ccccn1` [Rosiglitazone] + CC(C)(Cc1ccccc1)NCC(O)c1ccc(O)c(NS(C)(=O)=O)c1 [Zinterol hydrochloride] is lower in cell viability: over 100% for the first, 72.1% for the second.

First: CCn1c(=Cc2cccc[n+]2CC)sc(=C2Sc3ccccc3N2C)c1=O [MKT 077] + CN(C)CCNC(=O)c1cccn2c(=O)c3cc4ccccc4cc3nc12 [Bmh-21]
Second: CN(CCOc1ccc(Cc2sc(O)nc2O)cc1)c1ccccn1 [Rosiglitazone] + c1cc(-c2cnn3cc(-c4ccc(OCCN5CCCCC5)cc4)cnc23)ccn1 [Dorsomorphin]
The cell viability of the first is higher: 86% for the first, 60.9% for the second.

Same assay, conditions: drug1 concentration 500 nM; drug2 concentration 1000 nM; 72 h

Going from `O=C(O)CC[N+](=O)[O-]` [3-nitropropionic acid] + CCn1c(=Cc2cccc[n+]2CC)sc(=C2Sc3ccccc3N2C)c1=O [MKT 077] to `CN(CCOc1ccc(Cc2sc(O)nc2O)cc1)c1ccccn1` [Rosiglitazone] + CC(C)(Cc1ccccc1)NCC(O)c1ccc(O)c(NS(C)(=O)=O)c1 [Zinterol hydrochloride], the cell viability falls from 84% to 60.1%.

Compared with `CCn1c(=Cc2cccc[n+]2CC)sc(=C2Sc3ccccc3N2C)c1=O` [MKT 077] + CN(C)CCNC(=O)c1cccn2c(=O)c3cc4ccccc4cc3nc12 [Bmh-21], `CN(CCOc1ccc(Cc2sc(O)nc2O)cc1)c1ccccn1` [Rosiglitazone] + c1cc(-c2cnn3cc(-c4ccc(OCCN5CCCCC5)cc4)cnc23)ccn1 [Dorsomorphin] is higher in cell viability: 18.6% for the first, 87.6% for the second.

Same assay, conditions: drug1 concentration 500 nM; drug2 concentration 5000 nM; 72 h

`O=C(O)CC[N+](=O)[O-]` [3-nitropropionic acid] + CCn1c(=Cc2cccc[n+]2CC)sc(=C2Sc3ccccc3N2C)c1=O [MKT 077] and `CN(CCOc1ccc(Cc2sc(O)nc2O)cc1)c1ccccn1` [Rosiglitazone] + CC(C)(Cc1ccccc1)NCC(O)c1ccc(O)c(NS(C)(=O)=O)c1 [Zinterol hydrochloride] cannot be ordered by cell viability: over 100% for the first, over 100% for the second.

Going from `CCn1c(=Cc2cccc[n+]2CC)sc(=C2Sc3ccccc3N2C)c1=O` [MKT 077] + CN(C)CCNC(=O)c1cccn2c(=O)c3cc4ccccc4cc3nc12 [Bmh-21] to `CN(CCOc1ccc(Cc2sc(O)nc2O)cc1)c1ccccn1` [Rosiglitazone] + c1cc(-c2cnn3cc(-c4ccc(OCCN5CCCCC5)cc4)cnc23)ccn1 [Dorsomorphin], the cell viability rises from 29.9% to 82.5%.

Same assay, conditions: drug1 concentration 1000 nM; drug2 concentration 5 nM; 72 h

`O=C(O)CC[N+](=O)[O-]` [3-nitropropionic acid] + CCn1c(=Cc2cccc[n+]2CC)sc(=C2Sc3ccccc3N2C)c1=O [MKT 077] and `CN(CCOc1ccc(Cc2sc(O)nc2O)cc1)c1ccccn1` [Rosiglitazone] + CC(C)(Cc1ccccc1)NCC(O)c1ccc(O)c(NS(C)(=O)=O)c1 [Zinterol hydrochloride] cannot be ordered by cell viability: over 100% for the first, over 100% for the second.

`CCn1c(=Cc2cccc[n+]2CC)sc(=C2Sc3ccccc3N2C)c1=O` [MKT 077] + CN(C)CCNC(=O)c1cccn2c(=O)c3cc4ccccc4cc3nc12 [Bmh-21] and `CN(CCOc1ccc(Cc2sc(O)nc2O)cc1)c1ccccn1` [Rosiglitazone] + c1cc(-c2cnn3cc(-c4ccc(OCCN5CCCCC5)cc4)cnc23)ccn1 [Dorsomorphin] cannot be ordered by cell viability: over 100% for the first, over 100% for the second.

Same assay, conditions: drug1 concentration 1000 nM; drug2 concentration 10 nM; 72 h

Work on `O=C(O)CC[N+](=O)[O-]` [3-nitropropionic acid] + CCn1c(=Cc2cccc[n+]2CC)sc(=C2Sc3ccccc3N2C)c1=O [MKT 077] yielded a cell viability of over 100%.
